Usually IC50 stands for the concentration at which inhibition is half-maximal.

Molecules are shown by their SMILES. Calls of active or inactive are those of the source. No cut-off for these calls is given here.

One test deals with COLO 201. As to the kind of experiment: Cytotoxicity against human COLO201 cells assessed as reduction in cell proliferation measured after 24 hrs by WST-1 assay. In kind it is functional, cell-based. To be noted: COLO 201, 24 h. (Tetrazolium assays rely on reduction of a dye to a coloured formazan, in cell work by metabolically active cells.)
The subject of a further test is Bipolaris oryzae. The test is described as follows: Antifungal activity against Bipolaris oryzae incubated for 5 days. The test is classed as functional, organism-based. The note with it: time 5.0 day.

With `C[C@@H]1C=C[C@]2(O)C[C@@]3(O)C(=O)O[C@@H]2[C@@H]13`, the IC50 with COLO 201 is greater than 500 µM. Further, the result in the test with Bipolaris oryzae was inactive.

Consider `CC(=O)[C@H](O)[C@H]1[C@H](C)C=CC(=O)[C@@H]1O`, for which the IC50 in the test with COLO 201 is greater than 500 µM. For the same compound, the result in the test with Bipolaris oryzae was inactive.

On to `CC(=O)C(O)c1cc(O)ccc1C` (stereo not drawn), for which the IC50 with COLO 201 is 340 µM. The result with Bipolaris oryzae was inactive.

With `Cc1ccc(O)cc1C(=O)[C@H](C)O`, in the test with COLO 201, the IC50 stood at 290 µM. For the same compound, the result in the test on Bipolaris oryzae was inactive.

For the compound `COC(=O)[C@]12[C@@H](C(C)=O)O[C@H](CC(=O)[C@@H]1O)[C@H]2C`, the IC50 with COLO 201 was found to be 200 µM. Besides, the outcome in the test on Bipolaris oryzae was inactive.

For the compound `C=C1OC(=O)[C@]23[C@@H]1O[C@H](CC(=O)[C@@H]2O)[C@H]3C`, in the test with COLO 201, the IC50 is 390 µM. For the same compound, the result in the test with Bipolaris oryzae was inactive.

As to `CC(=O)[C@@H](O)c1c(C)ccc2c1O[C@]1(O2)[C@@]2(O)C=C[C@@H](C)[C@@H]3[C@H]2OC(=O)[C@@]31O`, the IC50 in the test with COLO 201 came to 260 µM. Also, the result in the test on Bipolaris oryzae was inactive.

Consider `C[C@@H]1C=C[C@@]2(O)C[C@]3(O)C(=O)O[C@H]2[C@H]13`, for which the IC50 in the test with COLO 201 came out at 300 µM. The result with Bipolaris oryzae was inactive.

Take `CC(=O)[C@@H](O)c1c(C)ccc2c1O[C@@]1(O2)[C@@]2(O)C=C[C@@H](C)[C@@H]3[C@H]2OC(=O)[C@@]31O`: in the test with COLO 201, the IC50 is 200 µM. In addition, the result in the test on Bipolaris oryzae was inactive.

Values taken from ChEMBL document CHEMBL5321260, “Pseudo-Enantiomeric Paraphaeolactones and Their Biosynthetic Derivatives from Paraphaeosphaeria sp. KT4192: A Proposition of a Favorskii Rearrangement for Their Biosynthesis” (J Nat Prod, 2023).
